Reference: patent US9765034B2, “5-halogenopyrazole biphenylcarboxamides” (BAYER CROPSCIENCE AG, priority 2012, dated 2017)

Legend:
[1] = system: Phytophthora infestans; format: in vivo; conditions: tomato plants, preventive spray, 500 ppm, grading 5 days after contamination
[2] = system: Pyrenophora teres; assay: In vivo preventive test on Pyrenophora teres (net blotch on barley); conditions: barley plants, preventive spray, 500 ppm, grading 14 days after contamination
Protocol: Example: In Vivo Preventive Test on Pyrenophora teres (Net Blotch on Barley) […] Barley plants (“Plaisant” variety), sown in starter cups on a 50/50 peat soil-pozzolana substrate and grown at 22° C., are treated at the 1-leaf stage (10 cm height) by spraying with the active ingredient prepared as described above. Plants, used as controls, are treated with the mixture of acetone/tween/DMSO/water not containing the active material. After 24 hours, the plants are contaminated by spraying the leaves with an aqueous suspension of Pyrenophora teres spores (12 000 spores per ml). The spores are collected from a 12-day-old culture. […] Grading (% of efficacy) is carried out 14 days after the contamination, in comparison with the control plants. Under these conditions, good (at least 70%) or total protection is observed at a dose of 500 ppm with the following compounds: […]

[3] = system: Pyricularia oryzae; format: in vivo; conditions: rice plants, preventive spray, 500 ppm, grading 6 days after contamination
[4] = system: Puccinia recondita; assay: In vivo preventive test on Puccinia recondita (brown rust on wheat); conditions: wheat plants, preventive spray, 500 ppm, grading 12 days after contamination
Protocol: Example: In Vivo Preventive Test on Puccinia recondita (Brown Rust on Wheat) […] Wheat plants (“Scipion” variety), sown in starter cups on a 50/50 peat soil-pozzolana substrate and grown at 22° C., are treated at the 1-leaf stage (10 cm height) by spraying with the active ingredient prepared as described above. Plants, used as controls, are treated with the mixture of acetone/tween/DMSO/water not containing the active material. After 24 hours, the plants are contaminated by spraying the leaves with an aqueous suspension of Puccinia […] spores (100 000 spores per ml). […] Grading (% of efficacy) is carried out 12 days after the contamination, in comparison with the control plants. Under these conditions, good (at least 70%) or total protection is observed at a dose of 500 ppm with the following compounds: […]

[5] = system: Septoria tritici; assay: In vivo preventive test on Septoria tritici (leaf spot on wheat); conditions: wheat plants, preventive spray, 500 ppm, grading 24 days after contamination
Protocol: Example: In Vivo Preventive Test on Septoria tritici (Leaf Spot on Wheat) […] Wheat plants (“Scipion” variety), sown in starter cups on a 50/50 peat soil-pozzolana substrate and grown at 22° C., are treated at the 1-leaf stage (10 cm height) by spraying with the active ingredient prepared as described above. Plants, used as controls, are treated with the mixture of acetone/tween/DMSO/water not containing the active material. After 24 hours, the plants are contaminated by spraying the leaves with an aqueous suspension of cryopreserved Septoria tritici spores (500 000 spores per ml). […] Grading (% of efficacy) is carried out 24 days after the contamination, in comparison with the control plants. Under these conditions, good (at least 70%) or total protection is observed at a dose of 500 ppm with the following compounds: […]

[6] = system: Sphaerotheca fuliginea; assay: In vivo preventive test on Sphaerotheca fuliginea (powdery mildew on cucurbits); conditions: gherkin plants, preventive spray, 500 ppm, grading 12 days after contamination
Protocol: Example: In Vivo Preventive Test on Sphaerotheca fuliginea (Powdery Mildew on Cucurbits) […] Gherkin plants (“Vert petit de Paris” variety), sown in starter cups on a 50/50 peat soil-pozzolana substrate and grown at 24° C., are treated at the Z11 cotyledon stage by spraying with the active ingredient prepared as described above. Plants, used as controls, are treated with the mixture of acetone/tween/DMSO/water not containing the active material. After 24 hours, the plants are contaminated by spraying the cotyledons with an aqueous suspension of Sphaerotheca fuliginea spores (100 000 spores per ml). The spores are collected from infected plants. […] Grading (% of efficacy) is carried out 12 days after the contamination, in comparison with the control plants. Under these conditions, good (at least 70%) or total protection is observed at a dose of 500 ppm with the following compounds: […]

[7] = system: Uromyces appendiculatus; assay: In vivo preventive test on Uromyces appendiculatus (bean rust); conditions: bean plants, preventive spray, 500 ppm, grading 11 days after contamination
Protocol: Example: In Vivo Preventive Test on Uromyces appendiculatus (Bean Rust) […] Bean plants (“Saxa” variety), sown in starter cups on a 50/50 peat soil-pozzolana substrate and grown at 24° C., are treated at the 2-leaf stage (9 cm height) by spraying with the active ingredient prepared as described above. Plants, used as controls, are treated with the mixture of acetone/tween/DMSO/water not containing the active material. After 24 hours, the plants are contaminated by spraying the leaves with an aqueous suspension of Uromyces appendiculatus spores (150 000 spores per ml). […] Grading (% of efficacy) is carried out 11 days after the contamination, in comparison with the control plants. Under these conditions, good (at least 70%) or total protection is observed at a dose of 500 ppm with the following compounds: […]

[8] = system: Fusarium nivale (var. majus); assay: In vivo Fusarium nivale (var. majus) test (wheat)/preventive; conditions: preventive, 500 ppm of active ingredient, evaluated 5 days after inoculation
Protocol: (§1) Example: In Vivo Fusarium nivale (Var. Majus)-Test (Wheat)/Preventive Solvent: 49 parts by weight of N,N-dimethylacetamide Emulsifier: 1 part by weight of alkylaryl polyglycol ether To produce a suitable preparation of active compound, 1 part by weight of active compound or active compound combination is mixed with the stated amounts of solvent and emulsifier, and the concentrate is diluted with water to the desired concentration. To test for preventive activity, young plants are sprayed with the preparation of active compound or active compound combination at the stated rate of application. After the spray coating has been dried, the plants are slightly injured by using a sandblast and afterwards to they are sprayed with a conidia suspension of Fusarium nivale (var. majus).

[9] = logP by HPLC on reversed phase columns (EEC directive 79/831 Annex V.A8); conditions: method [a]: LC-MS at pH 2.7, 0.1% formic acid in water / acetonitrile gradient 10% to 95%
[10] = system: Botrytis cinerea; assay: In vivo preventive test on Botrytis cinerea (grey mould); conditions: gherkin plants, preventive spray, 500 ppm, grading 4 to 5 days after contamination
Protocol: Example: In Vivo Preventive Test on Botrytis cinerea (Grey Mould) […] Gherkin plants (“Vert petit de Paris” variety), sown in starter cups on a 50/50 peat soil-pozzolana substrate and grown at 24° C., are treated at the Z11 cotyledon stage by spraying with the active ingredient prepared as described above. Plants, used as controls, are treated with the mixture of acetone/tween/DMSO/water not containing the active material. After 24 hours, the plants are contaminated by spraying the cotyledons with an aqueous suspension of cryopreserved Botrytis cinerea spores (50 000 spores per ml). The spores are suspended in a nutrient solution composed of 10 g/L of PDB, 50 g/L of D-Fructose, 2 g/L of NH4NO3 and 1 g/L of KH2PO4. […] Grading (% of efficacy) is carried out 4 to 5 days after the contamination, in comparison with the control plants. Under these conditions, good (at least 70%) or total protection is observed at a dose of 500 ppm with the following compounds: […]

[11] = system: Blumeria graminis fsp. hordei; assay: In vivo Blumeria test (barley)/preventive; conditions: preventive, 500 ppm of active ingredient, evaluated 7 days after inoculation
Protocol: as §1, with “Blumeria Test (Barley)/Preventive” for “Fusarium nivale (Var. Majus)-Test (Wheat)/Preventive”, “dusted” for “slightly injured by using a sandblast and afterwards to they are sprayed”, “spores” for “a conidia suspension”, “Blumeria graminis fsp. hordei.” for “Fusarium nivale (var. majus).”

[12] = system: Leptosphaeria nodorum; assay: In vivo Leptosphaeria nodorum test (wheat)/preventive; conditions: preventive, 500 ppm of active ingredient, evaluated 8 days after inoculation
Protocol: as §1, with “Leptosphaeria nodorum Test” for “Fusarium nivale (Var. Majus)-Test”, “are” for “are slightly injured by using a sandblast and afterwards to they are”, “spore” for “conidia”, “Leptosphaeria nodorum.” for “Fusarium nivale (var. majus).”

[13] = physchem; conditions: pH 2.7
[14] = system: Phakopsora pachyrhizi; assay: In vivo Phakopsora test (soybeans)/preventive; conditions: preventive, 100 ppm of active ingredient, evaluated 7 days after inoculation
Protocol: Example: In Vivo Phakopsora Test (Soybeans)/Preventive Solvent: 24.5 parts by weight of acetone • 24.5 parts by weight of dimethylacetamide Emulsifier: • 1 part by weight of alkylaryl polyglycol ether To produce a suitable preparation of active compound, 1 part by weight of active compound is mixed with the stated amounts of solvent and emulsifier, and the concentrate is diluted with water to the desired concentration. To test for preventive activity, young plants are sprayed with the preparation of active compound at the stated rate of application. After the spray coating has dried on, the plants are inoculated with an aqueous to spore suspension of the causal agent of soybean rust (Phakopsora pachyrhizi) and stay for 24 h without light in an incubation cabinet at approximately 24° C. and a relative atmospheric humidity of 95%.

Row | Structure (SMILES) | Eff. % [1] [%] | Eff. % [2] [%] | Eff. % [3] [%] | Eff. % [4] [%] | Eff. % [5] [%] | Eff. % [6] [%] | Eff. % [7] [%] | Eff. % [8] [%] | logP [9] | Eff. % [10] [%] | Eff. % [11] [%] | Eff. % [12] [%] | chromatographic logP [13] | Eff. % [14] [%]
1 | C#CCON=Cc1ccc(-c2ccccc2NC(=O)c2c(C(F)F)nn(C)c2F)cc1 [Example 4] | 100 | 100 | 80 | 100 | 95 | 100 | 100 | 80 | 3.55[a] | – | – | – | – | –
2 | CCON=Cc1ccc(-c2ccccc2NC(=O)c2c(C(F)F)nn(C)c2F)cc1 [Example 7] | – | 100 | 90 | 94 | – | 100 | 100 | – | 3.87[a] | 85 | 100 | 90 | – | –
3 | CON=Cc1ccc(-c2ccccc2NC(=O)c2c(C(F)F)nn(C)c2Cl)cc1 [Example 8] | – | 97 | 80 | 100 | 100 | 100 | 100 | – | 4.18[a] | 73 | 100 | – | – | –
4 | CON=Cc1ccc(-c2ccccc2NC(=O)c2c(C(F)F)nn(C)c2F)cc1 [Example 9, 5-fluoro-3-(difluoromethyl)-N-{4′-[(methoxyimino)methyl]biphenyl-2-yl}-1-methyl-1H-pyrazole-4-carboxamide] | – | 79 | 80 | 100 | 80 | 100 | 100 | – | – | – | – | – | 3.46 | –
5 | CCON=C(c1ccc(-c2ccccc2NC(=O)c2c(C(F)F)nn(C)c2F)cc1)C(F)(F)F [Example 29] | – | 97 | 83 | 97 | – | 100 | 100 | 86 | 4.46[a] | – | – | – | – | 91
